{
  "source": "patent US9386787B2",
  "about": "“Preparations for oral consumption” (Symrise AG, priority 2012, dated 2016)",
  "experiment": "multiple time-intensity profiling (mTIP) of astringency, trained panel",
  "format": "in vivo",
  "conditions": "750 mg/kg EGCG + 125 mg/kg ascorbic acid; for Reduction (%) of astringency: 300 μg/kg Frescolat ML vs without; for Astringency with Frescolat ML: 300 μg/kg Frescolat ML",
  "protocol": "In order to evaluate different attributes of a sample simultaneously over a particular period of time, the method of so-called “multiple time-intensity profiling” (mITP) was used. This descriptive method combines the advantages of the “dual-attribute time-intensity” (DATI) method, in which the intensities of two descriptors can be plotted on a two-dimensional plane, and the “time-intensity profiling” (TIP) method, in which more than two descriptors are evaluated in succession over time. In each mTIP test, trained panellists (n=15) are asked to take 2 mouthfuls (each 5 ml) of the sample to be evaluated, to wet the entire oral cavity therewith, and then to spit the sample out again. […] A parallel evaluation of more than two attributes is thus possible. The intensities are read after the first 10 seconds and then every 20 seconds over a period of 70 seconds. The data produced are analysed by means of Compusense® five and represented graphically as a time-intensity curve. In order to show the astringency-masking effect of L-lactic acid L-menthyl ester (Frescolat ML), the panel was trained inter alia with an aqueous test solution comprising 750 mg/kg of epigallocatechin gallate and 125 mg/kg of ascorbic acid. The panellists were asked to evaluate the test solution in respect of its bitterness and astringency using the above-described method. In a subsequent test, the two descriptors were evaluated on the one hand for the above-described test solution and on the other hand for the test solution plus 300 μg/kg of Frescolat ML. The results of both time-intensity curves were evaluated statistically and compared with one another in order to determine an astringency-masking effect of Frescolat® ML. For the significance calculation, the Student t-test, duplicated with paired random samples, was used.",
  "note": "Marks after values point to notes of the source that are not given here.",
  "data": [
    {"compound": "CC(C)[C@@H]1CC[C@@H](C)C[C@H]1OC(=O)[C@H](C)O", "note": "[Frescolat ML, L-lactic acid L-menthyl ester]", "values": [
      {"measurement": "Reduction (%) of astringency", "setting": "time 0 sec", "result": "−0.49", "unit": "%"},
      {"measurement": "Reduction (%) of astringency", "setting": "time 10 sec", "result": "−14.29", "unit": "%"},
      {"measurement": "Reduction (%) of astringency", "setting": "time 30 sec, significant (p < 0.1)", "result": "−20.58* %"},
      {"measurement": "Reduction (%) of astringency", "setting": "time 50 sec, significant (p < 0.1)", "result": "−22.24* %"},
      {"measurement": "Reduction (%) of astringency", "setting": "time 70 sec", "result": "−17.82", "unit": "%"},
      {"measurement": "Astringency with Frescolat ML", "setting": "time 0 sec", "result": 4.81},
      {"measurement": "Astringency with Frescolat ML", "setting": "time 10 sec", "result": 4.11},
      {"measurement": "Astringency with Frescolat ML", "setting": "time 30 sec", "result": 3.38},
      {"measurement": "Astringency with Frescolat ML", "setting": "time 50 sec", "result": 2.58},
      {"measurement": "Astringency with Frescolat ML", "setting": "time 70 sec", "result": 2.04}
    ]}
  ]
}
